Test results: patent publication US7592373B2 (Boehringer Ingelheim International GmbH, priority 2003, dated 2009)
Counter-ions that a name gives are not always drawn.

Question: For `CC#Cc1ccc(NC(=O)C#Cc2ccc(CCN3CCCC3)cc2)cc1` [Example 2.5, 3-[4-(2-pyrrolidin-1-ylethyl)phenyl]propynoic acid-(4-prop-1-ynylphenyl)amide], which melting point is on record?
Answer: 198 to 199 °C

Question: For `C[C@@H]1C[C@H](C)CN(Cc2ccc(/C=C/C(=O)Nc3ccc(-c4ccc(Cl)cc4)cc3)cc2)C1` [Example 5.3, (E)-N-(4′-chlorobiphenyl-4-yl)-3-[4-(cis-3,5-dimethylpiperidin-1-ylmethyl)phenyl]acrylamide], which melting point is on record?
Answer: 217 to 218 °C

Question: With `O=C(CCc1ccc(CN2CCC[C@@H]2CO)cc1)Nc1ccc(-c2ccc(Cl)cc2)cc1` [Example 6.8, N-(4′-chlorobiphenyl-4-yl)-3-[4-((R)-2-hydroxymethylpyrrolidin-1-ylmethyl)phenyl]propionamide] as the compound, how does the melting point read?
Answer: 156 to 157 °C

Question: Which melting point does the source give for `CN(Cc1ccc(CCC(=O)Nc2ccc(-c3ccc(Cl)cc3)cc2)cc1)CC1CCOCC1` [Example 6.19, N-(4′-chlorobiphenyl-4-yl)-3-(4-{[methyl-(tetrahydropyran-4-ylmethyl)amino]methyl}phenyl)propionamide] here?
Answer: 162 to 163 °C

Question: With `CCN(CC)CCOc1ccc(NC(=O)C#Cc2ccc(-c3ccc(Cl)cc3)cc2)cc1Cl.Cl` as the compound, how does the melting point read?
Answer: 226 to 233 °C

Question: For `CC1CC(C)CN(Cc2ccc(NC(=O)C#Cc3ccc(-c4ccc(Cl)cc4)cn3)cc2)C1` (stereo not drawn) [Example 3.29, 3-[5-(4-chlorophenyl)pyridin-2-yl]propynoic acid-[4-(3,5-dimethylpiperidin-1-ylmethyl)phenyl]amide], which melting point is on record?
Answer: 195 to 197 °C

Question: For `CCN(CC)CCOc1ccc(NC(=O)C#Cc2ccc(-c3ccccc3)cc2)cc1Cl` [Example 4.4, 3-biphenyl-4-ylpropynoic acid-[3-chloro-4-(2-diethylaminoethoxy)phenyl]amide], which melting point is on record?
Answer: 105 to 108 °C

Question: For `O=C(/C=C/c1ccc(CN2CCC(N3CCCCC3)C2)cc1)Nc1ccc(-c2ccc(Cl)cc2)cc1` (stereo not drawn) [Example 5.28, (E)-N-(4′-chlorobiphenyl-4-yl)-3-[4-(3-piperidin-1-ylpyrrolidin-1-ylmethyl)phenyl]acrylamide], which melting point is on record?
Answer: 209 to 210 °C

Question: With `O=C(C#Cc1ccc(C(F)(F)F)cc1Cl)Nc1ccc(OCCn2cnnc2)cc1` [Example 3.44, 3-(2-chloro-4-trifluoromethylphenyl)propynoic acid-[4-(2-[1.2.4]triazol-4-ylethoxy)phenyl]amide] as the compound, how does the melting point read?
Answer: 223 to 227 °C

Question: For `CCN(CC)CCOc1ccc(NC(=O)C#Cc2ccc(Cl)cc2Cl)cc1` [Example 3.4, 3-(2,4-dichlorophenyl)propynoic acid-[4-(2-diethylaminoethoxy)phenyl]amide], which melting point is on record?
Answer: 107 to 109 °C

Question: With `COCCN(C)Cc1ccc(CCC(=O)Nc2ccc(-c3ccc(Cl)cc3)cc2)cc1` [Example 6.17, N-(4′-chlorobiphenyl-4-yl)-3-(4-{[(2-methoxyethyl)methylamino]methyl}phenyl)propionamide] as the compound, how does the melting point read?
Answer: 138 °C

Question: Which melting point does the source give for `CCN(CC)CCOc1ccc(NC(=O)C#Cc2cccnc2)cc1Cl` [Example 4.285, 3-pyridin-3-ylpropynoic acid-[3-chloro-4-(2-diethylaminoethoxy)phenyl]amide] here?
Answer: 118 to 120 °C

Question: For `CN(C(=O)CCc1ccc(CN2CCC3(CCCC3)CC2)cc1)c1ccc(-c2ccc(Cl)cc2)cc1` [Example 6.45, 3-[4-(8-azaspiro[4.5]dec-8-ylmethyl)phenyl]-N-(4′-chlorobiphenyl-4-yl)-N-methylpropionamide], which melting point is on record?
Answer: 119 °C

Question: With `COc1cc(NC(=O)C#Cc2ccc(C(F)(F)F)cc2Cl)ccc1OCCN1CCc2ccccc2C1` (as salt: formate) [Example 4.275, 3-(2-chloro-4-trifluoromethylphenyl)propynoic acid-{4-[2-(3,4-dihydro-1H-isoquinolin-2-yl)ethoxy]-3-methoxyphenyl}amide formate] as the compound, how does the melting point read?
Answer: 92 to 95 °C

Question: For `O=C(C#Cc1ccc(CN2CCCCC2)cc1)Nc1ccc(-c2ccc(Cl)cc2)cc1` [Example 1.39, 3-(4-piperidin-1-ylemthylphenyl)propynoic acid-(4′-chlorobiphenyl-4-yl)amide], which melting point is on record?
Answer: 179.5 °C

Question: Which melting point does the source give for `O=C(/C=C/c1ccc(CN(CCO)C2CCCCC2)cc1)Nc1ccc(-c2ccc(Cl)cc2)cc1` [Example 5.38, (E)-N-(4′-chlorobiphenyl-4-yl)-3-(4-{[cyclohexyl-(2-hydroxyethyl)amino]methyl}phenyl)acrylamide] here?
Answer: 178 to 179 °C

Question: Which melting point does the source give for `O=C(C#Cc1ccc(CCN2CCCC2)cc1)Nc1ccc(-c2ccccc2)cc1` [Example 2.1, 3-[4-(2-pyrrolidin-1-ylethyl)phenyl]propynoic Acid biphenyl-4-ylamide] here?
Answer: 180 to 189 °C

Question: Which melting point does the source give for `CCN(Cc1ccc(CCC(=O)Nc2ccc(-c3ccc(Cl)cc3)cc2)cc1)CC(C)(C)O` [Example 6.42, N-(4′-chlorobiphenyl-4-yl)-3-(4-{[ethyl-(2-hydroxy-2-methylpropyl)amino]methyl}phenyl)propionamide] here?
Answer: 135 °C

Question: With `O=C(C#Cc1ccc(C(F)(F)F)cc1Cl)Nc1ccc(CN2CCCCC2)cc1` (as salt: hydrochloride) [Example 3.41, 3-(2-chloro-4-trifluoromethylphenyl)propynoic acid(4-piperidin-1-ylmethylphenyl)amide hydrochloride] as the compound, how does the melting point read?
Answer: 193 to 195 °C

Question: With `O=C(CCc1ccc(CNC2CC2)cc1)Nc1ccc(-c2ccc(Cl)cc2)cc1` (as salt: trifluoroacetate) [Example 6.43, N-(4′-chlorobiphenyl-4-yl)-3-(4-cyclopropylaminomethylphenyl)propionamide trifluoroacetate] as the compound, how does the melting point read?
Answer: 208 °C

Question: Which melting point does the source give for `O=C(C#Cc1ccc(C(F)(F)F)cc1Cl)Nc1ccc2c(ccn2CCN2CCCC2)c1` [Example 4.11, 3-(2-chloro-4-trifluoromethylphenyl)propynoic acid-[1-(2-pyrrolidin-1-ylethyl)-1H-indol-5-yl]amide] here?
Answer: 200 to 205 °C

Question: With `CN(Cc1ccc(C#CC(=O)Nc2ccc(-c3ccc(Cl)cc3)cc2)cc1)CC1CC1` [Example 1.40] as the compound, how does the melting point read?
Answer: 181 °C

Question: With `CN1CCN(Cc2ccc(NC(=O)C#Cc3ccc(-c4ccc(Cl)cc4)cc3)cc2)CC1` [Example 3.8, 3-(4′-chlorobiphenyl-4-yl)propynoic acid-[4-(4-methylpiperazin-1-ylmethyl)phenyl]amide] as the compound, how does the melting point read?
Answer: 182 to 185 °C

Question: Which melting point does the source give for `CN(Cc1ccc(NC(=O)C#Cc2ccc(-c3ccc(Cl)cc3)cc2)cc1)CC1CC1` [Example 3.15, 3-(4′-chlorobiphenyl-4-yl)propynoic acid-{4-[(cyclopropylmethylmethylamino)methyl]phenyl}amide] here?
Answer: 164 to 167 °C

Question: For `O=C(/C=C/c1ccc(CN2CC[C@H](O)C2)cc1)Nc1ccc(-c2ccc(Cl)cc2)cc1` [Example 5.9, (E)-N-(4′-chlorobiphenyl-4-yl)-3-[4-((S)-3-hydroxypyrrolidin-1-ylmethyl)phenyl]acrylamide], which melting point is on record?
Answer: 178 to 179 °C

Question: With `CC1(O)CCN(Cc2ccc(C#CC(=O)Nc3ccc(-c4ccc(Cl)cc4)cc3)cc2)CC1` [Example 1.37, 3-[4-(4-hydroxy-4-methylpiperidin-1-ylmethyl)phenyl]propynoic acid-(4′-chlorobiphenyl-4-yl)amide] as the compound, how does the melting point read?
Answer: 192 to 193 °C

Question: With `O=C(CCc1ccc(CN2CCC(N3CCCCC3)C2)cc1)Nc1ccc(-c2ccc(Cl)cc2)cc1` (stereo not drawn) [Example 6.25, N-(4′-chlorobiphenyl-4-yl)-3-[4-(3-piperidin-1-ylpyrrolidin-1-ylmethyl)phenyl]propionamide] as the compound, how does the melting point read?
Answer: 168.8 °C
